Measurements published in patent publication US20040244713A1, “Method for treating animals or masses of water with compositions comprising quinone compounds” (priority 2003, published 2004).
Like-named read-outs stand apart in the source and are kept apart here.

Tests used:
Eurytemora Affinis [1] = assay: Toxicity test LC50 on Eurytemora Affinis; details: in vivo
Text: (§9) The table below lists the results of the toxicity tests performed on fish fauna and on some phyto- and zooplankton species considered among the possible targets of the claimed method.

[2] = system: Dreissena Polimorfa Larvae; assay: Toxicity test LC50 on Dreissena Polimorfa larvae; details: for LC50 Dreissena Polimorfa Larvae: in vivo
Text: as §9

Isochris Galbana = assay: Toxicity test LC50 on Isochris Galbana; assay type: cell-based
Text: as §9

Artemia Salina = assay: Toxicity test LC50 on Artemia Salina; details: in vivo
Text: as §9

Eurytemora Affinis [3] = details: in vivo
Text: as §9

[4] = Hydrolysis test performed in darkness; assay type: physicochemical
[5] = Photodegradability in sunlight and UV light; assay type: physicochemical; details: 10-ppm solution in drinking water (pH 6.5-7.5)
Method: In a fully similar manner, the same behaviour is confirmed if one assesses the photodegradability in sunlight and UV light (the radiation test was performed on a 10-ppm solution in drinking water (pH 6.5-7.5)

[6] = system: Haemoncus contortus larvae (L1); assay: Motility of Haemoncus contortus larvae (L1); assay type: in vivo
Method: (§1) The effect of menadione nicotinamide bisulfite on Haemoncus contortus is assessed by measuring the motility of the larvae (L1), Table 2, and the faecal count of the larvae (L3), Table 2.1, according to the methodology described in Fetterer R. et Al. (1989) Vet. Parasitol. 32:181-189.

[7] = Biodegradability OECD 301 A (92/69/EEC C4-A); assay type: physicochemical
Text: The degradability of a substance is normally a factor that is impossible to predict on a structural basis. […] On the basis of the available data related to the compounds that are chemically more similar to the derivatives of menadione described here, one could have expected a degradability comprised between the 0% (percentage calculated on the initial mass of product expressed as mg/l) of menadione (2-methyl-1,4-naphthalenedione) and the 17% (assessed after 28 days) of menadione sodium bisulfite (where the calculation was performed by using the OECD301 A guidelines annexed to EEC directive 92/69/EEC C4-A).
Finally, biodegradability according to the 92/69/EEC C4-A regulation was also assessed.

Vibrio sp. CH45 = details: 24 hours in darkness, tested range 0.12-64 mg/l
Method: (§2) The MNB compound was tested in particular for its antibacterial activity on pathogenic and non-pathogenic organisms. The biocidal activity of MNB was estimated by using two separate methods: the agar diffusion test (Kirby-Bauer method) and the determination of the Minimum Inhibiting Concentration (MIC) and the Minimum Bactericidal Concentration (MBC).
(§3) b) Test for determining the MIC (minimum inhibiting concentration) and the MBC (minimum bactericidal concentration) of MNB with respect to pathogenic organisms after the colonies were kept in darkness for 24 hours. Tested concentration range: 0.12-64 mg/l. The tested strains were environmental isolates identified by means of an internal number or were standard strains identified by means of the ATCC or MNCIB filing number.

Vibrio sp. AE7 = details: 24 hours in darkness, tested range 0.12-64 mg/l
Method: as §2, §3

Vibrio sp. AD18 = details: 24 hours in darkness, tested range 0.12-64 mg/l
Method: as §2, §3

Rainbow trout = assay: Toxicity test LC50 on fish fauna, Rainbow trout; assay type: in vivo
Text: as §9

[8] = system: Haemoncus contortus larvae (L3); assay: Faecal count of Haemoncus contortus larvae (L3); assay type: in vivo
Method: as §1

[9] = system: Pseudomonas elongata NCIMB 1141; assay: Agar diffusion test (Kirby-Bauer); assay type: cell-based; details: MNB (100 μg) per disk, 24 hours in darkness
Method: (§4) a) Kirby-Bauer test performed after 24 hours in darkness.
(§5) In this test, paper disks impregnated with known quantities of MNB are placed on the surface of agar disks injected at confluence with a standard suspension of a bacterial strain. The antibacterial agent diffuses on the plate, causing the formation of an area of inhibition of the growth of the bacterial strain around the disk with the inhibiting quantity of the agent. By virtue of a calibration curve it was possible to classify the isolates into susceptible, moderately resistant, and resistant.
(§6) The method being considered, therefore, assesses the effectiveness of a single quantity of agent ([…]) against two control strains of Gram-positive and Gram-negative aerobic bacteria (Gram-negative: Pseudomonas elongata NCIMB 1141; Gram-positive: Staphylococcus aureus ATCC 25923).
(§7) The results are given in the table and represent the size of the inhibition halos in millimetres after contact with 100 μg of MNB.

[10] = system: Staphylococcus aureus ATCC 25923; assay: Agar diffusion test (Kirby-Bauer); assay type: cell-based; details: MNB (100 μg) per disk, 24 hours in darkness
Method: as §4, §5, §6, §7

[11] = system: Pseudomonas elongata NCIMB 1141; assay: MIC and MBC determination; assay type: cell-based; details: 24 hours in darkness, tested range 0.12-64 mg/l
Method: (§8) Tested concentration range: 0.12-64 mg/l.

[12] = system: Vibrio parahaemolyticus AD19; assay: MIC and MBC determination; assay type: cell-based; details: 24 hours in darkness, tested range 0.12-64 mg/l
Method: as §8

[13] = system: Staphylococcus aureus ATCC 25923; assay: MIC and MBC determination; assay type: cell-based; details: 24 hours in darkness, tested range 0.12-64 mg/l
Method: as §8

[14] = system: Pseudomonas putida NCIMB 1960; assay: MIC and MBC determination; assay type: cell-based; details: 24 hours in darkness, tested range 0.12-64 mg/l
Method: as §8

[15] = system: Bacillus licheniformis NCIMB 1525; assay: MIC and MBC determination; assay type: cell-based; details: 24 hours in darkness, tested range 0.12-64 mg/l
Method: as §8

Micrococcus sp. AE11 = assay: MIC and MBC determination; assay type: cell-based; details: 24 hours in darkness, tested range 0.12-64 mg/l
Method: as §8

Corynebacterium sp. CT15 = assay: MIC and MBC determination; assay type: cell-based; details: 24 hours in darkness, tested range 0.12-64 mg/l
Method: as §8

[16] = system: Pseudomonas aeruginosa ATCC 10145; assay: MIC and MBC determination; assay type: cell-based; details: 24 hours in darkness, tested range 0.12-64 mg/l
Method: as §8

Aeromonas sp. CH34 = assay: MIC and MBC determination; assay type: cell-based; details: 24 hours in darkness, tested range 0.12-64 mg/l
Method: as §8

[17] = system: Escherichia coli ATCC 25922; assay: MIC and MBC determination; assay type: cell-based; details: 24 hours in darkness, tested range 0.12-64 mg/l
Method: as §8

Micrococcus sp. AD10 = assay: MIC and MBC determination; assay type: cell-based; details: 24 hours in darkness, tested range 0.12-64 mg/l
Method: as §8

Bacillus subtilis = assay: MIC and MBC determination; assay type: cell-based; details: Bacillus subtilis ATCC 25923; 24 hours in darkness; tested range 0.12-64 mg/l
Method: as §8

[18] = Method: As noted repeatedly, the water solubility of the biocidal candidate is an essential requirement for advantageous use in biological water control. Accordingly, this property was evaluated for four of the compounds that are representative of the chemical classes to which the biocides currently in use belong.
[19] = OECD301 A guidelines, cited from earlier work
[20] = Feeding trial in rabbits in the fattening stage (growth, mortality); assay type: in vivo, New Zealand White rabbits; details: in feed: Bacitracin zinc 1.5 ppm, MSB 250 ppm; for Final number of animals / Final average weight / Mortality %: end of fattening cycle (53 days after weaning); for Final number of animals: 200 animals initially; for Average daily growth: fattening cycle of 53 days after weaning
Method: The effect of a preparation comprising menadione sodium bisulfite coated with saturated vegetable fatty acids on rabbits in the fattening stage is evaluated.
Composition of the preparation (per Kg of final preparation):
MSB coated with hydrogenated vegetable fatty acids (1:1 inclusion ratio) 250 g;
This preparation is added in the quantity of 1 Kg per ton of feed, so that the final concentration of MSB is equal to 125 ppm/Kg of finished food. Since rabbits are fed with 120-150 grams of feed/day, the concentration of MSB is equal to an average daily dose of approximately 15-20 mg of MSB/animal per day.
New Zealand White animals, weaned at 32 days, were grown with the preparation cited above and compared with animals of the same race, fed with the same basic feed but treated with bacitracin zinc in a quantity equal to 150 mg/100 Kg of feed and with animals lacking any drug integration.

CC1=CC(=O)c2c(O)cccc2C1=O [2-methyl-5-hydroxy-1,4-naphthalenedione]
LC50 Eurytemora Affinis (Eurytemora Affinis [1]): 5 ppm | LC50 Dreissena Polimorfa Larvae [2]: 0.2 ppm | LC50 Isochris Galbana (Isochris Galbana): 0.5 ppm | LC50 Artemia Salina (Artemia Salina): 5 ppm

Cc1ccc2c(c1)C(=O)c1ccccc1C2=O [2-methyl-anthraquinone]
LC50 Eurytemora Affinis (Eurytemora Affinis [3]): 5 ppm | LC50 Dreissena Polimorfa Larvae [2]: 200 ppm | LC50 Isochris Galbana (Isochris Galbana): 0.5 ppm | LC50 Artemia Salina (Artemia Salina): 5 ppm

O=C1C=CC(=O)c2c(O)cccc21 [Juglone, 5-hydroxy-1,4-naphthalenedione, reference compound]
½ LIFE, hydrolysis ([4]; PH 9, in darkness): 15 h | Light exp. Total Degr. [5]: 48 h

CC1(S(=O)(=O)O)CC(=O)c2ccccc2C1=O.NC(=O)c1cccnc1 (stereo not drawn) [MNB, menadione nicotinamide bisulfite]
% of motile larvae (L1) ([6]; 1 μg of MNB/ml): 70% | % of motile larvae (L1) ([6]; 10 μg of MNB/ml): 43% | % of motile larvae (L1) ([6]; 100 μg of MNB/ml): 3% | degradability compared with that of MSB [7]: as much as eight times higher | % biodegr. OECD 301 A ([7]; after 7 days): 37% | % biodegr. OECD 301 A ([7]; after 14 days): 37% | % biodegr. OECD 301 A ([7]; after 28 days): 40% | MBC (Vibrio sp. CH45): 16 µg/mL | MIC (Vibrio sp. CH45): 16 µg/mL | MBC (Vibrio sp. AE7): 32 to 64 µg/mL | MIC (Vibrio sp. AE7): 16 to 32 µg/mL | MBC (Vibrio sp. AD18): 32 µg/mL | MIC (Vibrio sp. AD18): 16 µg/mL | LC50 Rainbow trout (assessed on 96 h) (Rainbow trout): 0.4 ppm | Total no. of larvae (L3) ([8]; 1 μg of MNB/ml): 650 | Total no. of larvae (L3) ([8]; 10 μg of MNB/ml): 310 | Total no. of larvae (L3) ([8]; 100 μg of MNB/ml): 35 | LC50 Eurytemora Affinis (Eurytemora Affinis [1]): 5 ppm | ½ LIFE, hydrolysis ([4]; PH 6.8, in darkness): 48 h | ½ LIFE, hydrolysis ([4]; PH 9, in darkness): <3 h | LC50 Dreissena Polimorfa Larvae [2]: 1 ppm | size of the inhibition halos [9]: 20 mm | size of the inhibition halos [10]: 20 mm | MBC [11]: 16 µg/mL | MIC [11]: 8 µg/mL | MBC [12]: 4 µg/mL | MIC [12]: 1 µg/mL | MBC [13]: 16 µg/mL | MIC [13]: 8 µg/mL | MBC [14]: >64 µg/mL | MIC [14]: >64 µg/mL | MBC [15]: 32 µg/mL | MIC [15]: 16 µg/mL | MBC (Micrococcus sp. AE11): 16 µg/mL | MIC (Micrococcus sp. AE11): 8 µg/mL | MBC (Corynebacterium sp. CT15): 16 µg/mL | MIC (Corynebacterium sp. CT15): 8 µg/mL | MBC [16]: >64 µg/mL | MIC [16]: >64 µg/mL | MBC (Aeromonas sp. CH34): 64 µg/mL | MIC (Aeromonas sp. CH34): 32 µg/mL | MBC [17]: >64 µg/mL | MIC [17]: >64 µg/mL | MBC (Micrococcus sp. AD10): 32 µg/mL | MIC (Micrococcus sp. AD10): 16 µg/mL | MBC (Bacillus subtilis): 32 µg/mL | MIC (Bacillus subtilis): 12 µg/mL | Light exp. Total Degr. [5]: 48 h | Light exp. ½ life [5]: 10 h | LC50 Isochris Galbana (Isochris Galbana): 0.5 ppm | LC50 Artemia Salina (Artemia Salina): 5 ppm | Sol. in H2O [18]: 19 gr/l

CC1(S(=O)(=O)[O-])CC(=O)c2ccccc2C1=O.[Na+] (stereo not drawn) [MSB, menadione sodium bisulfite]
% biodegr. OECD 301 A ([7]; after 7 days): 5% | % biodegr. OECD 301 A ([7]; after 14 days): 10% | degradability (percentage calculated on the initial mass of product expressed as mg/l) ([19]; assessed after 28 days, available/reported data): 17% | Final number of animals [20]: 191 | Final average weight [20]: 2.84 kilograms | Mortality % [20]: 4.5% | Average daily growth [20]: 38.1 grams

CC1=CC(=O)c2ccccc2C1=O [Menadione, 2-methyl-1,4-naphthalenedione, reference compound]
LC50 Eurytemora Affinis (Eurytemora Affinis [3]): 5 ppm | LC50 Rainbow trout (assessed on 96 h) (Rainbow trout): 0.1 ppm | degradability (percentage calculated on the initial mass of product expressed as mg/l) ([19]; available data, time not stated): 0% | ½ LIFE, hydrolysis ([4]; PH 6.8, in darkness): 1500 h | ½ LIFE, hydrolysis ([4]; PH 9, in darkness): 550 h | LC50 on Dreissena Polimorfa relative to 2-methyl-5-hydroxy-1,4-naphthalenedione ([2]; 500 ppm vs 0.2 ppm): 2500 times | LC50 Dreissena Polimorfa Larvae [2]: 500 ppm | Light exp. Total Degr. [5]: >5000 h | Light exp. ½ life [5]: 1500 h | LC50 Isochris Galbana (Isochris Galbana): 0.05 ppm | LC50 Artemia Salina (Artemia Salina): 5 ppm

bacitracin zinc [reference compound]
Final number of animals [20]: 185 | Final average weight [20]: 2.77 kilograms | Mortality % [20]: 7.5% | Average daily growth [20]: 36.8 grams
